Measured values reported in patent publication US9422263B2, “Fluoro-substituted 3,5-dicyano-4-(1H-indazol-5-yl)-2,6-dimethyl-1,4-dihydropyridine derivatives and methods of use thereof” (BAYER PHARMA AKTIENGESELLSCHAFT, priority 2009, dated 2016).

Key:
[1] = biological target: Recombinant human c-Met protein (Homo sapiens (Human), UniProt P08581); assay: c-Met receptor tyrosine kinase activity assay (NADH read-out); type: biochemical; conditions: ATP 30 μM, c-Met 30 nM
Experimental: c-Met Receptor Tyrosine Kinase Activity Assay (NADH Read-Out):
Recombinant human c-Met protein (Invitrogen, Carlsbad, Calif., USA) is used. As substrate for the kinase reaction the peptide KKKSPGEYVNIEFG (JPT, Germany) is used. For the assay, 1 μL of a 51-fold concentrated solution of the test compound in DMSO is pipetted into a white 384-well microtiter plate (Greiner Bio-One, Frickenhausen, Germany). 25 μL of a solution of c-Met (final concentration 30 nM) and pyruvate kinase/lactate dehydrogenase (Roche Diagnostics, Mannheim, Germany; final concentration 8 mg/L) in assay buffer [3-(N-morpholino)propanesulfonic acid (MOPS), 50 mM, pH 7; MgCl2, 10 mM; bovine serum albumin (BSA), 0.01%; Triton X 100, 0.01%; DTT, 2 mM] are added, and the mixture is incubated for 5 min at room temperature. Then, the kinase reaction is started by the addition of 25 μL of a solution of adenosine triphosphate (ATP, final concentration 30 μM), substrate (final concentration 100 μM), nicotinamide adenine dinucleo-tide (NADH, final concentration 50 μM) and dithiothreitol (DTT, final concentration 2 mM) in assay buffer, and the resulting mixture is incubated for a reaction time of 100 min at 32° C.
Subsequently, the amount of phosphorylated substrate is evaluated by measurement of the decrease of NADH fluorescence. Therefore, the fluorescence emissions at 465 nm after excitation at 340 nm is measured in a fluorescence reader, e.g. Tecan Ultra (Tecan, Männedorf, Switzerland). The data are normalised (enzyme reaction without inhibitor=0% inhibition; all other assay components but no enzyme=100% inhibition).

[2] = biological target: recombinant kinase domain of the human c-Met (amino acids 960-1390) (Homo sapiens (Human), UniProt P08581); assay: c-Met receptor tyrosine kinase homogeneous time-resolved fluorescence assay (alternative format); type: biochemical; conditions: HTRF format; ATP 10 μM
Chain of recombinant kinase domain of the human c-Met (amino acids 960-1390) (P08581 960-1390): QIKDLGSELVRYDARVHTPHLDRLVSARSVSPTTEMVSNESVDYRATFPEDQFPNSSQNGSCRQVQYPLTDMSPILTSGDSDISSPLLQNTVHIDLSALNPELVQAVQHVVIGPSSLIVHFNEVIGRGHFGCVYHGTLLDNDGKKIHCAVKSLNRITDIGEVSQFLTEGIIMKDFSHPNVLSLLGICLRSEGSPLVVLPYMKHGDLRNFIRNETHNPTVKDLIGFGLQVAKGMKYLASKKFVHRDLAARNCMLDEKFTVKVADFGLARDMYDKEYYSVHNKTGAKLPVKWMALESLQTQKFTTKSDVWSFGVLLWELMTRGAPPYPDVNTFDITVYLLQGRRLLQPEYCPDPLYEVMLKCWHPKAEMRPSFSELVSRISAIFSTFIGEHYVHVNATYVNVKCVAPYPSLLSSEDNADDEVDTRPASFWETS
Description: c-Met Receptor Tyrosine Kinase Homogeneous Time-Resolved Fluorescence Assay (Alternative Format):
The N-terminally His6-tagged recombinant kinase domain of the human c-Met (amino acids 960-1390), expressed in insect cells (SF21) and purified by Ni-NTA affinity chromatography and consecutive size exclusion chromatography (Superdex 200), is used. Alternatively, commercially available c-Met (Millipore) can be used. As substrate for the kinase reaction, the biotinylated poly-Glu, Tyr (4:1) copolymer (#61GTOBLC, Cis Biointernational, Marcoule, France) is used.
For the assay, […] of a 100-fold concentrated solution of the test compound in DMSO is pipetted into a black low-volume 384-well microtiter plate (Greiner Bio-One, Frickenhausen, Germany). 2 μL of a solution of c-Met in assay buffer [25 mM Hepes/NaOH, pH 7.5; 5 mM MgCl2; 5 mM MnCl2; 2 mM dithiothreitol; 0.1% (v/v) Tween 20 (Sigma); 0.1% (w/v) bovine serum albumin] are added, and the mixture is incubated for 15 min at 22° C. to allow pre-binding of the test compound to the enzyme before the start of the kinase reaction. Then, the kinase reaction is started by the addition of 3 μL of a solution of adenosine triphosphate (ATP, 16.7 μM; final concentration in the 5 μL assay volume is 10 μM) and substrate (2.27 μg/mL, final concentration in the 5 μL assay volume is 1.36 μg/mL ˜30 nM) in assay buffer, and the resulting mixture is incubated for a reaction time of 30 min at 22° C. The concentration of c-Met in the assay is adjusted depending on the activity of the enzyme lot and is appropriately chosen to have the assay in the linear range; typical enzyme concentrations are in the range of about 0.03 nM (final concentration in the 5 μL assay volume). The reaction is stopped by the addition of 5 μL of a solution of HTRF detection reagents [40 nM streptavidine-X Lent and 2.4 nM PT66-Eu-chelate, an europium-chelate labelled anti-phosphotyrosine antibody (Perkin-Elmer)] in an aqueous EDTA solution [100 mM EDTA, 0.2% (w/v) bovine serum albumin in 50 mM HEPES/NaOH, pH 7.5].
The resulting mixture is incubated for 1 h at 22° C. to allow the binding of the biotinylated phosphorylated peptide to the streptavidine-XLent and the PT66-Eu-chelate. Subsequently, the amount of phosphorylated substrate is evaluated by measurement of the resonance energy transfer from the PT66-Eu-chelate to the streptavidine-XLent. Therefore, the fluorescence emissions at 620 nm and 665 nm after excitation at 350 nm are measured in an HTRF reader, e.g. Rubystar (BMG Lab-technologies, Offenburg, Germany) or Viewlux (Perkin-Elmer). The ratio of the emissions at 665 nm and at […] is taken as the measure for the amount of phosphorylated substrate. The data are normalised (enzyme reaction without inhibitor=0% inhibition; all other assay components but no enzyme=100% inhibition).

[3] = Caco-2 permeability assay; type: in vitro ADME; conditions: human, apical to basolateral, 2 h at 37° C., Table 4, read-out: Caco-2 permeability PappA-B
Description: Caco-2 Permeability Assay:
The in vitro permeation of a test compound across a Caco-2 cell monolayer is a well-established assay system to predict the permeability from the gastro-intestinal tract [cf. P. Artursson and J. Karlsson: Correlation between oral drug absorption in humans and apparent drug permeability coefficients in human intestinal epithelial (Caco-2) cells, Biochem. Biophys. 175 (3), 880-885 (1991)]. The permeability of the compounds of the present invention in such Caco-2 cells was determined as described below:
Human caco-2 cells (ACC No. 169, DSMZ, German Collection of Microorganisms and Cell Cultures, Braunschweig, Germany) are seeded on 24-well insert plates and are allowed to grow for 14-16 days. For permeability studies, the test compounds are dissolved in DMSO and diluted to the final test concentration of 2 μM with transport buffer [Hanks' Buffered Salt Solution, Gibco/Invitrogen, further supplemented with glucose (final concentration 19.9 mM) and HEPES (final concentration 9.8 mM)]. For determination of the apical to basolateral permeability (PappA-B), the test compound solution is added to the apical side of the cell monolayer and transport buffer to the basolateral side of the monolayer; for determination of the basolateral to apical permeability (PappB-A), the test compound solution is added to the basolateral side of the cell monolayer and transport buffer to the apical side of the monolayer. Samples are taken from the donor compartment at the beginning of the experiment to confirm mass balance. After an incubation of 2 h at 37° C., samples are taken from both compartments. Samples are analyzed by LC-MS/MS, and the apparent permeability coefficients are calculated. Lucifer Yellow permeability is assayed for each cell monolayer to ensure cell monolayer integrity, and the permeability of Atenolol (low permeability marker) and Sulfasalazine (marker for active excretion) is determined for each batch as quality control.

Chain of Recombinant human c-Met protein (P08581 25-1390): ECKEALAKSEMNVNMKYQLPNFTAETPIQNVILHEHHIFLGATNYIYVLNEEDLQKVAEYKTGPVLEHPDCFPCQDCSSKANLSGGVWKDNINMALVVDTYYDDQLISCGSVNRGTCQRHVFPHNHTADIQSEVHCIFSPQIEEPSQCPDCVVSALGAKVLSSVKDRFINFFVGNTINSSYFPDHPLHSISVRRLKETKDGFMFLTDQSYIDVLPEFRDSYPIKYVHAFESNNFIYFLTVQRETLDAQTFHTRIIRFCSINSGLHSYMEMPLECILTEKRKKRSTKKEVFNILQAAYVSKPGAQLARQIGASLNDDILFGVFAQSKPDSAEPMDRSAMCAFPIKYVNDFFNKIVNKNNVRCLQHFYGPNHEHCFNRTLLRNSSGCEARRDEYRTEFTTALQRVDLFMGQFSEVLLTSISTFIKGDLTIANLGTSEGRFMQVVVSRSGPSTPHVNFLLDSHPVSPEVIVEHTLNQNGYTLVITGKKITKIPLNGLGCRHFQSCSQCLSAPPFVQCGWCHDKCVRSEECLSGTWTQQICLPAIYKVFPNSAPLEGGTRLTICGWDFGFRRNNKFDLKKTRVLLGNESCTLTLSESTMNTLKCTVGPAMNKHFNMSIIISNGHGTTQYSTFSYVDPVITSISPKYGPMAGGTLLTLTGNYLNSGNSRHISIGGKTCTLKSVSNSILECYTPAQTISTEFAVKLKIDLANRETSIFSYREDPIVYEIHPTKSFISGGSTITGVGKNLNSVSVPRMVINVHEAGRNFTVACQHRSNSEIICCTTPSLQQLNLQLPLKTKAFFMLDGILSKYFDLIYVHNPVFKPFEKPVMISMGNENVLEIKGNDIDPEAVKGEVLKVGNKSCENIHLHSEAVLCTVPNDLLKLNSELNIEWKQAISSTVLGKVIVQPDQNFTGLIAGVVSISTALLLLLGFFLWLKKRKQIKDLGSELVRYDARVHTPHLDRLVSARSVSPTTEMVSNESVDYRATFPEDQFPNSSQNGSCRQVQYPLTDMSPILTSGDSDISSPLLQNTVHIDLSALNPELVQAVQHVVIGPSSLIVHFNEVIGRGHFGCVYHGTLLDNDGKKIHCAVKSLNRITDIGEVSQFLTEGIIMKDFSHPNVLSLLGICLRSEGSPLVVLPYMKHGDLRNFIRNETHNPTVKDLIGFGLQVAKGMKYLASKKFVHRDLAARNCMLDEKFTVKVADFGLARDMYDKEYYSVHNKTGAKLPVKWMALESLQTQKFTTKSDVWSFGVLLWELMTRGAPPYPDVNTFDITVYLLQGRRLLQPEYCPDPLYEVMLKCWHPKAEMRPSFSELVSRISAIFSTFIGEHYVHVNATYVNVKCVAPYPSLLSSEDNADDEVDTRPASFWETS

SMILES | IC50 [1] [nM] | IC50 [2] [nM] | Papp at 2 h, 2 μM [3] [×10⁻⁶ cm/s]
CCC(F)(F)C1=C(C#N)C(c2ccc3[nH]nc(C)c3c2)C(C#N)=C(C)N1 (racemic) [Example 30, rac-2-(1,1-Difluoropropyl)-6-methyl-4-(3-methyl-1H-indazol-5-yl)-1,4-dihydropyridine-3,5-dicarbonitrile] | 21 | 3 | 22
CC1=C(C#N)C(c2ccc3[nH]nc(C)c3c2)C(C#N)=C(C(F)F)N1 (single isomer, unassigned) [Example 2, 2-(Difluoromethyl)-6-methyl-4-(3-methyl-1H-indazol-5-yl)-1,4-dihydropyridine-3,5-dicarbonitrile] | 6 | 2 | –
